Here are results for 14 molecules from patent US6855730B2, “3-methylidenyl-2-indolinone modulators of protein kinase” (Sugen, Inc., priority 1998, dated 2005).

The target of one experiment is T1, PDGFR-β (Homo sapiens, UniProt P09619).
T1 construct: host or cells: NIH 3T3
The experiment can be described thus: Biochemical PDGFR assay (ELISA, PDGFR-β expressing NIH 3T3 cell lysate). The note with it: read-out: bio PDGF IC50. From the text:
This assay measures the in vitro kinase activity of PDGFR using ELISA.
Unless otherwise noted, the preparation of working solution-of the following reagents is the same as that for the Biochemical EGFR assay, above. • 1. […] 28D4C10 monoclonal anti-PDGFR antibody (Biochemistry Lab, SUGEN, Inc.). • 3. PBS (Dulbecco's Phosphate-Buffered Saline, Gibco Catalog No. 450-1300EB) • 4. TBST Buffer. • 5. Blocking Buffer. • 6. PDGFR-β expressing NIH 3T3 cell lysate (Screening Lab, SUGEN, Inc.). • 7. TBS Buffer. • 8. TBS+10% DMSO. • 9. […] MnCl2. • 11. Kinase buffer phosphorylation mix.
• 12. NUNC 96-well V bottom polypropylene plates (Applied Scientific Cat. No. AS-72092). • 13. Ethylenediaminetetraacetic acid (EDTA). • 14. Rabbit polyclonal anti-phosphotyrosine serum (Biochemistry Lab, SUGEN, Inc.). • 15. Goat anti-rabbit IgG peroxidase conjugate (Biosource Cat. No. ALI0404). • 16. 2,2′-azino-bis(3-ethylbenzthiazoline-6-sulfonic acid) (ABTS, Sigma Cat. No. A-1888). • 17. Hydrogen peroxide 30% solution (Fisher Cat. No. H325). • 18. ABTS/H2O2. • 19. 0.2 M HCl.
Procedure • 1. Coat Corning 96 well ELISA plates with 0.5 μg 28D4C10 in 100 μl PBS per well, store overnight at 4° C. • 2. Remove unbound 28D4C10 from wells by inverting plate to remove liquid. Wash 1× with dH2O. Pat the plate on a paper towel to remove excess liquid. • 3. Add 150 μl of Blocking Buffer to each well. Incubate for 30 min. at room temperature with shaking. • 4. Wash plate 3× with deionized water, then once with TBST. Pat plate on a paper towel to remove excess liquid and bubbles. • 5. Dilute lysate in HNTG (10 μg lysate/100 μl HNTG) • 6. Add 100 μl of diluted lysate to each well. Shake at room temperature for 60 min. • 7. Wash plates as described in 4, above. • 8. Add 80 μl working kinase buffer mix to ELISA plate containing captured PDGFR. • 9. Dilute test compound 1:10 in TBS in 96-well polypropylene plates (i.e., 10 μl compound+90 μl TBS). • 10. Add 10 μl diluted test compound to ELISA plate. […] Incubate for 30 minutes while shaking at room temperature. • 12. Add 10 μl ATP directly to all wells except negative control well (final well volume should be approximately 100 μl with 20 μM ATP in each well.) Incubate 30 minutes while shaking. • 13. After 30 minutes, stop reaction by adding 10 μl of 200 mM EDTA (pH 8.0) to each well. • 14. Wash 4× with deionized water, twice with TBST. • 15. Add 100 μl anti-phosphotyrosine (1:3000 dilution in TBST) per well. Incubate 30-45 min. at room temperature, with shaking. • 16. Wash as described in 4, above. • 17. Add 100 μl Biosource Goat anti-rabbit IgG peroxidase conjugate (1:2000 dilution in TBST) to each well. Incubate 30 min. at room temperature, with shaking. • 18. Wash as described in 4, above. • 19. Add 100 μl of ABTS/H2O2 solution to each well. • 20. Incubate 10 to 30 minutes with shaking. Remove any bubbles. • 21. If necessary stop reaction with the addition of 100 μl 0.2 M HCl per well. • 22. Read assay on Dynatech MR7000 ELISA reader: test filter: 410 nM, reference filter: 630 nM.
In general terms: ELISA stands for enzyme-linked immunosorbent assay.

The target in the next experiment is T2, flkGST (Homo sapiens, UniProt P35968).
T2 construct: GST
T2 sequence (P35968 786-1356 limits assumed): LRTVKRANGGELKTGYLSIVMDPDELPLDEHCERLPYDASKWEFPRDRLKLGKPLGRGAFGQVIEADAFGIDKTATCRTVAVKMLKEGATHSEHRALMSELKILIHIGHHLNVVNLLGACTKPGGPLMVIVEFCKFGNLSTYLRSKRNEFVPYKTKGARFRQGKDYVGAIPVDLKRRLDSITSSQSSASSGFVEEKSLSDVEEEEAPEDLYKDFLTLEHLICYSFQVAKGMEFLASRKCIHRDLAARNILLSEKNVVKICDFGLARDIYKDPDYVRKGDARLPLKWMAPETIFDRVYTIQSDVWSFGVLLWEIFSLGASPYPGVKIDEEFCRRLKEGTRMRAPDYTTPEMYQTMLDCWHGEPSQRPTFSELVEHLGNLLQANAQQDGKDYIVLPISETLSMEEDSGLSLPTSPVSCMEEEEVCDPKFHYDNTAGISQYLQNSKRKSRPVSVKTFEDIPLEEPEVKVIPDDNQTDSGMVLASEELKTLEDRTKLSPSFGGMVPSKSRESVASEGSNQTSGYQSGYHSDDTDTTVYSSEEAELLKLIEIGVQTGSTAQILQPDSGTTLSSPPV
The experiment can be described thus: bio flkGST assay. It counts as biochemical.

Experiment [1] deals with Myc-GyrB-FGFR fusion protein (Homo sapiens, UniProt P11362). Description: Biochemical FGFR assay (ELISA). The note with it: read-out: bio fgfR1 IC50.
Myc-GyrB-FGFR fusion protein, sequence (P11362 478-767 limits assumed): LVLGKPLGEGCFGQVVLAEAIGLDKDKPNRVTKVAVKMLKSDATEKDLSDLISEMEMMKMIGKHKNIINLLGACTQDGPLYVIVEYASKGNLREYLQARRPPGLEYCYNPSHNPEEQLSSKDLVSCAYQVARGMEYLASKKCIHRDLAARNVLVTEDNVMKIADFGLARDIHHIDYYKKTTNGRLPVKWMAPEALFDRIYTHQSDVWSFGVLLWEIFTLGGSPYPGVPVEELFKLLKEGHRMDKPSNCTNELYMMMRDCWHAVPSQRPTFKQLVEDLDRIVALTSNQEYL
Method: This assay measures in vitro kinase activity of the Myc-GyrB-FGFR fusion protein using ELISA.
Materials and Reagents • 1. HNTG
PBS (Dulbecco's Phosphate-Buffered Saline, Gibco Catalog # 450-1300EB). • 3. Blocking Buffer. • 4. Kinase Buffer.
Working solution: 100 mM in ethanol. • 6.
ABTS Solution. • 10. Hydrogen peroxide 30% solution ( Fisher Catalog # H325). • 11. ABTS/H2O2. • 12. 0.2 M HCl. • 13.
Prepare 1.0 mM solution in MilliQ H2O, adjust pH to 7.2 with HCl. • 14.
Prepare 5 M solution in MilliQ H2O. • 15. MgCl, (Fisher Cat. No. M33-500).
Prepare 1 M solution in MilliQ H2O. • 16. HEPES (Fisher Cat. No. BP310-500).
Prepare 1 M solution in MilliQ H2O, adjust pH to 7.5, sterile filter. • 17. TBST Buffer. • 18. Sodium Carbonate Buffer (Fisher Cat. No. S495).
Prepare 0.1 M solution in MilliQ H2O, adjust pH to 9.6 with NaOH, filter. • 19. Dithiothreitol (DTT, Fisher Cat. No. BP172-25).
Prepare 0.5 mM working solution in MilliQ H2O just prior to-use. Store at −20° C. until used, discard any leftover. • 20. MnCl2. • 21. Triton X-100. • 22. Goat α-Rabbit IgG (Cappel). • 23. Affinity purified Rabbit α GST GyrB (Biochemistry Lab. SUGEN, Inc.).
All of the following steps are conducted at room temperature unless otherwise indicated. • 1. Coat Corning 96-well ELISA plates with 2 μg Goat α-Rabbit antibody per well in Carbonate Buffer such that total well volume is 100 μl. Store overnight at 40° C. • 2. Remove unbound Goat a-Rabbit antibody by inverting plate to remove liquid. Pat plate on a paper towel to remove excess liquid and bubbles • 3.. Add 150 μl Blocking Buffer (5% Low Fat Milk in PBS) to each well. Incubate while shaking on a micro-titer plate shaker for 30 min. • 4. Wash 4× with TBST. Pat plate on a paper towel to remove excess liquid and bubbles. • 5. Add 0.5 μg Rabbit α-GyrB antibody per well. Dilute antibody in DPBS to a final volume of 100 μl per well. Incubate with shaking on a micro-titer plate shaker at room temperature for 1 hour. • 6. Wash 4× with TBST as described in step 4. • 7. Add 2 μg COS/FGFR cell lysate (Myc-GyrB-FGFR source) in HNTG to each well to give a final volume of 100 μl per well. Incubate with shaking on a micro-titer plate shaker for 1 hour. • 8. Wash 4× with TBST as described in step 4. • 9. Add 80 μl of 1× kinase buffer per well. • 10. […] Transfer 10 μ l of diluted test compound solution and control wells from polypropylene plate wells to the corresponding ELISA plate wells, incubate with shaking on a micro-titer plate shaker for 20 minutes. • 12. Add 10 μl of 70 μM ATP diluted in kinase buffer to positive control and test wells (Final ATP concentration is 7 EM/well). Add 10 μl 1× kinase buffer to negative control wells. Incubate with shaking on a micro-titer plate shaker for 15 min. • 13. Stop kinase reaction by adding 5 μl 0.5 M EDTA to all wells. • 14. Wash 4× with TBST as described in step 4. • 15. Add 100 μl biotin conjugated α-phosphotyrosine mab (b4G10) diluted in TBST to each well. Incubate with shaking on a micro-titer plate shaker for 30 minutes. • 16. Prepare Vectastain ABC reagent. […] Mix by inverting tube several times. Add 1 drop reagent B and mix again. • 17. Wash 4× with TBST as described in step 4. • 18. Add 100 μl ABC HRP reagent to each well. Incubate with shaking on a micro-titer plate shaker for 30 minutes. • 19. Wash 4× with TBST as described in step 4. • 20. Add 100 μl of ABTS/H2O2 solution to each well. • 22. Incubate 5 to 15 minutes with shaking. Remove any bubbles. • 23. If necessary stop reaction by adding 1 00 μl of 0.2M HCl/well. • 24.
The target in experiment [2] is T3, chimeric receptor containing the EGFR extracellular domain and intracellular HER2 kinase domain (Homo sapiens, UniProt P04626).
T3 construct: fused on or other part: EGFR ectodomain + HER2 intracellular part, ATP-site indolinones: HER2's kinase
T3 sequence (P04626 720-1255 limits assumed, change not shown): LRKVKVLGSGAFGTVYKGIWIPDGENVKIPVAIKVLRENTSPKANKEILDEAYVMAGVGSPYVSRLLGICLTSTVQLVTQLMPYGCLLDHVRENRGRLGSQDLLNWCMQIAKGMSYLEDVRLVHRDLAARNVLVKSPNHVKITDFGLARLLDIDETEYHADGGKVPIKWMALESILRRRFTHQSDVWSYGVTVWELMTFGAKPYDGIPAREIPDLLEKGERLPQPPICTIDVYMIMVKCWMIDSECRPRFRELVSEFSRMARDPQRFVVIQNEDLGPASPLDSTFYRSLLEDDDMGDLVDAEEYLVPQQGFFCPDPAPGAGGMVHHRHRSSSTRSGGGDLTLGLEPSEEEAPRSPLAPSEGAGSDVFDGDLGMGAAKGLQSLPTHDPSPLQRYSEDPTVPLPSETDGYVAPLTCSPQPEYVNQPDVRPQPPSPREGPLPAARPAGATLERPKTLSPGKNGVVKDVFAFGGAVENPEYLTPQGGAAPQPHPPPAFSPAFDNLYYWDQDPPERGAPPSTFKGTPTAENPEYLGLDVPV
The experiment can be described thus: EGF Receptor-HER2 chimeric receptor assay in whole cells (ELISA). It counts as cell-based. The note with it: read-out: HER-2 kinase IC50. The procedure: EGF Receptor-HER2 Chimeric Receptor Assay In Whole Cells.
HER2 kinase activity in whole EGFR-NIH3T3 cells are measured as described below:
• a. […] 05-101 (UBI) (a monoclonal antibody recognizing an EGFR extracellular domain). • c. Anti-phosphotyrosine antibody (anti-Ptyr) (polyclonal) (see, Fendley, et al., supra). • d. Detection antibody: Goat anti-rabbit IgG horseradish peroxidase conjugate, TAGO, Inc., Burlingame, Calif. • e. TBST buffer:
• h. Stock reagents of:
Pre-coat ELISA Plate • 1. […] Coated plates are good for up to 10 days when stored at 4° C. • 2. On day of use, remove coating buffer and replace with 100 μl blocking buffer (5% Carnation Instant Non-Fat Dry Milk in PBS). Incubate the plate, shaking, at room temperature (about 23° C. to 25° C.) for 30 minutes. Just prior to use, remove blocking buffer and wash plate 4 times with TBST buffer.
Seeding Cells • 1. An NIH3T3 cell line overexpressing a chimeric receptor containing the EGFR extracellular domain and intracellular HER2 kinase domain can be used for this assay. • 2. Choose dishes having 80-90% confluence for the experiment. Trypsinize cells and stop reaction by adding 10% fetal bovine serum. Suspend cells in DMEM medium (10% CS DMEM medium) and centrifuge once at 1500 rpm, at room temperature for 5 minutes. • 3. Resuspend cells in seeding medium (DMEM, 0.5% bovine serum), and count the cells using trypan blue. Viability above 90% is acceptable. Seed cells in DMEM medium (0.5% bovine serum) at a density of 10,000 cells per well, 100 μl per well, in a 96 well microtiter plate. Incubate seeded cells in 5% CO2. at 37° C. for about 40 hours.
Assay Procedures • 1. Check seeded cells for contamination using an inverted microscope. Dilute drug stock (10 mg/ml in DMSO) 1:10 in DMEM medium, then transfer 5 μl to a […] well for a final drug dilution of 1:200 and a final DMSO concentration of 1%. Control wells receive DMSO alone. Incubate in 5% CO2 at 37° C. for two hours. • 2. Prepare EGF ligand: dilute stock EGF in DMEM so that upon transfer of 10 μl dilute EGF (1:12 dilution), 100 nM final concentration is attained. • 3. Prepare fresh HNTG* sufficient for 100 μl per well, and place on ice.
• 4. After 120 minutes incubation with drug, add prepared […] ligand to cells, 10 μl per well, to a final concentration of 100 nM. Control wells receive DMEM alone. Incubate with shaking, at room temperature, for 5 minutes. • 5. Remove drug, EGF, and DMEM. Wash cells twice with PBS. Transfer HNTG* to cells, 100 μl per well. Place on ice for 5 minutes. Meanwhile, remove blocking buffer from other ELISA plate and wash with TBST as described above. • 6. With a pipette tip securely fitted to a micropipettor, scrape cells from plate and homogenize cell material by repeatedly aspirating and dispensing the HNTG* lysis buffer. Transfer lysate to a coated, blocked, and washed ELISA plate. Incubate shaking at room temperature for one hour. • 7. Remove lysate and wash 4 times with TBST. Transfer freshly diluted anti-Ptyr antibody to ELISA plate at 100 μl per well. Incubate shaking at room temperature for 30 minutes in the presence of the anti-Ptyr antiserum (1:3000 dilution in TBST). • 8. Remove the anti-Ptyr antibody and wash 4 times with TBST. Transfer the freshly diluted TAGO anti-rabbit IgG antibody to the ELISA plate at 100 μl per well. Incubate shaking at room temperature for 30 minutes (anti-rabbit IgG antibody: 1:3000 dilution in TBST). • 9. Remove TAGO detection antibody and wash 4 times with TBST. Transfer freshly prepared ABTS/H2O2 solution to ELISA plate, 100 μl per well. Incubate shaking at room temperature for 20 minutes. (ABTS/H2O2 solution: 1.0 μl 30% H2O2 in 10 ml ABTS stock). • 10. Stop reaction by adding 50 μl 5N H2SO4 (optional), and determine O.D. at 410 nm. • 11. The maximal phosphotyrosine signal is determined by subtracting the value of the negative controls from the positive controls. […]

One may read the IC50 as the concentration at which inhibition is half-maximal.

T1 sequence (P09619 33-1106): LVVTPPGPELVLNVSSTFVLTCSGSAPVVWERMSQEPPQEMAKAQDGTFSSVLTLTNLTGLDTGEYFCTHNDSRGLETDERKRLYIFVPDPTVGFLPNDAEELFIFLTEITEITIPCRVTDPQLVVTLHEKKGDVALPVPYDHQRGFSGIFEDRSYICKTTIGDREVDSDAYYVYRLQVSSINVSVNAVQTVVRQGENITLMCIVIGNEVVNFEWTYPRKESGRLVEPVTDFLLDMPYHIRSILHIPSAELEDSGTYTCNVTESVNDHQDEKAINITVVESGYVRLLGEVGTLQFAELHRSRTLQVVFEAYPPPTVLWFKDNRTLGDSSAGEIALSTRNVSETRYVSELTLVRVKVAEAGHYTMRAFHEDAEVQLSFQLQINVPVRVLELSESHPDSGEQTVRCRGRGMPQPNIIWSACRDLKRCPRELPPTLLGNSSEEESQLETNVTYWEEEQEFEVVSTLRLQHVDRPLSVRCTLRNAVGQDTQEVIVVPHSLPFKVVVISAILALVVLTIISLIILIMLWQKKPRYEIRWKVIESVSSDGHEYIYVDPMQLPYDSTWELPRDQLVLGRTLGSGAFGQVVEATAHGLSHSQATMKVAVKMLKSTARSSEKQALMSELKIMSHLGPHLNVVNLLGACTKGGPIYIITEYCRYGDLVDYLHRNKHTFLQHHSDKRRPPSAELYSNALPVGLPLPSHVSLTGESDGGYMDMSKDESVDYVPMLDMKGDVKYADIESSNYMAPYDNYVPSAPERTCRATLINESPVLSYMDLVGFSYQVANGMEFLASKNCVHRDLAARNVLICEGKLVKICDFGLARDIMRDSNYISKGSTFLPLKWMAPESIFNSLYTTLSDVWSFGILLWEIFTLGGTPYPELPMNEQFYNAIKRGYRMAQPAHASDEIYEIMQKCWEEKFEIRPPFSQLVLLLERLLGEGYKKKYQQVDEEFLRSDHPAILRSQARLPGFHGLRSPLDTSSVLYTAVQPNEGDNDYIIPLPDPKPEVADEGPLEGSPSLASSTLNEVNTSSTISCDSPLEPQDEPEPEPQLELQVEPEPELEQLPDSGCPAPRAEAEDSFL

`CCOC(=O)c1[nH]c(/C=C2\C(=O)Nc3ccccc32)c(CCC(=O)O)c1C` [Example 117, 4-(2-Carboxyethyl)-3-methyl-5-(2-oxo-1,2-dihydroindol-3-ylidenemethyl)-1H-pyrrole-2-carboxylic acid ethyl ester]: the IC50 on PDGFR-β is over 100 µM; against flkGST, 13.5 µM; in experiment [1], over 20 µM.
As for `CCOC(=O)c1c(C)[nH]c(/C=C2\C(=O)Nc3ccc(S(=O)(=O)NC)cc32)c1CCCN1CCCC1` [Example 126, 2-Methyl-5-(5-methylsulfamoyl-2-oxo-1,2-dihydroindol-3-ylidenemethyl)-4-(3-pyrrolidin-1-ylpropyl)-1H-pyrrole-3-carboxylic acid ethyl ester], the figures for the IC50 on PDGFR-β and on flkGST were 63.3 µM and 14.8 µM, respectively.
Turning to `CCOC(=O)c1c(C)[nH]c(/C=C2\C(=O)Nc3ccc(S(N)(=O)=O)cc32)c1CCCN1CCCC1` [Example 130, 2-Methyl-5-(2-oxo-5-sulfamoyl-1,2-dihydroindol-3-ylidenemethyl)-4-(3-pyrrolidin-1-ylpropyl)-1H-pyrrole-3-carboxylic acid ethyl ester], the IC50 at PDGFR-β stood at 2.32 µM; at flkGST it was 12.9 µM.
`CCOC(=O)c1c(C)[nH]c(/C=C2\C(=O)Nc3ccc(S(N)(=O)=O)cc32)c1CCCN(C)C` [Example 133, 4-(3-Dimethylaminopropyl)-2-methyl-5-(2-oxo-5-sulfamoyl-1,2-dihydroindol-3-ylidenemethyl)-1H-pyrrole-3-carboxylic acid ethyl ester]: the results for the IC50 at PDGFR-β and against flkGST were 2.69 µM and 8.18 µM, respectively.
As for `COc1ccc2c(c1)/C(=C/c1[nH]c3ccccc3c1CCCN(C)C)C(=O)N2` [Example 151, 3-[3-(3-Dimethylaminopropyl)-1H-indol-2-ylmethylene]-5-methoxy-1,3-dihydroindol-2-one], the half-maximal inhibitory concentration (IC50) turned out to be 0.65 µM at PDGFR-β and 0.71 µM at flkGST.
In the case of `Cc1ccc2c(c1)/C(=C/c1[nH]c3ccccc3c1C)C(=O)N2` [Example 152, 5-Methyl-3-(3-methyl-1H-indol-2-ylmethylene)-1,3-dihydro-indol-2-one], the IC50 in experiment [2] was over 100 µM; in experiment [1], over 20 µM.
With `Cc1c(/C=C2\C(=O)Nc3ccc(S(N)(=O)=O)cc32)[nH]c2ccccc12` [Example 153, 3-(3-Methyl-1H-indol-2-ylmethylene)-2-oxo-2,3-dihydro-1H-indole-5-sulfonic acid amide], the IC50 in experiment [2] is over 100 µM; at PDGFR-β, over 100 µM; in experiment [1] it was over 20 µM.
For the molecule `CC(=O)c1ccc2c(c1)C(=Cc1[nH]c3ccccc3c1C)C(=O)N2` [Example 157, 5-Acetyl-3-(3-methyl-1H-indol-2-ylmethylene)-1,3-dihydroindol-2-one], the results for the 50% inhibitory concentration (IC50) (in experiment [2]; at PDGFR-β; in experiment [1]) were over 100 µM, over 100 µM and over 20 µM, respectively.
Consider `NS(=O)(=O)c1ccc2c(c1)/C(=C/c1cc3ccccc3[nH]1)C(=O)N2` [Example 159, 3-(1H-Indol-2-ylmethylene)-2-oxo-2,3-dihydro-1H-indole-5-sulfonic acid amide], for which the figures for the 50% inhibitory concentration (IC50) (at PDGFR-β; on flkGST; in experiment [1]) were 74.1 µM, 2.87 µM and over 20 µM, respectively.
For the molecule `O=C1Nc2cc(Cl)ccc2/C1=C/c1cc2ccccc2[nH]1` [Example 162, 6-Chloro-3-(1H-indol-2-ylmethylene)-1,3-dihydro-indol-2-one], the half-inhibitory concentration (IC50) at PDGFR-β was 8.02 µM; in experiment [1] it was over 20 µM.
For `O=C1Nc2ccccc2/C1=C/c1cc2ccccc2[nH]1` [Example 163, 3-(1H-Indol-2-ylmethylene)-1,3-dihydro-indol-2-one] the same measures were over 100 µM and over 20 µM.
Turning to `O=C1Nc2ccc(Cl)cc2/C1=C/c1cc2ccccc2[nH]1` [Example 164, 5-Chloro-3-(1H-indol-2-ylmethylene)-1,3-dihydro-indol-2-one], the results for the IC50 (in experiment [2]; on PDGFR-β; in experiment [1]) were over 100 µM, over 100 µM and over 20 µM, respectively.
Regarding `Cc1c(/C=C2\C(=O)Nc3ccccc32)[nH]c2ccccc12` [Example 167, 3-(3-Methyl-1H-indol-2-ylmethylene)-1,3-dihydro-indol-2-one], the figures for the concentration for half-maximal inhibition (IC50) (at PDGFR-β; in experiment [1]) were over 100 µM and over 20 µM, respectively.
For `Cc1c(/C=C2\C(=O)Nc3ccc(Cl)cc32)[nH]c2ccccc12` [Example 168, 5-Chloro-3-(3-methyl-1H-indol-2-ylmethylene)-1,3-dihydro-indol-2-one] the same measures were over 100 µM and over 20 µM.
